Assay results taken from US10583115B2, “Modulators of 14-3-3 functionality and uses thereof” (University of South Australia, priority 2014, dated 2020).
“Also recorded” adds a separate entry of the source.

What was measured:
[1] = molecular target: T1, recombinant 14-3-3ζ (Homo sapiens, UniProt P63104); assay: 14-3-3 phosphorylation assay (PKA, in vitro); assay type: biochemical
T1 construct: 0.5 μg of purified recombinant 14-3-3
T1 sequence (P63104 1-245): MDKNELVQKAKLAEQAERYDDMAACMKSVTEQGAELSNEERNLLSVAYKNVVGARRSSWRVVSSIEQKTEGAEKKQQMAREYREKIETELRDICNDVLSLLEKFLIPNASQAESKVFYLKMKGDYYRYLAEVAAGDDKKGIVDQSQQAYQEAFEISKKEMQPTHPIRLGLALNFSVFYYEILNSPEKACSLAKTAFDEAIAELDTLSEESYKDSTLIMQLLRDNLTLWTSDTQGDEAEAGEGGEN
Procedure: (§1) Substrate 14-3-3 (0.5 μg of purified recombinant 14-3-3) was added to 15 μl reaction mixture comprising 0.2 U of the PKA catalytic subunit, in the presence or absence of compounds (delivered in 0.1% v/v ethanol) in PKA reaction buffer (10 mM Tris-HCl pH 7.4, 15 mM MgCl2, 3 mM DTT) containing 25 μM ATP and 0.3 μCi [^32P] 7-ATP). Reactions were incubated at 37° C. for 15 min. After incubation, reactions were separated on 12.5% SDS-PAGE, coomassie stained and 14-3-3 phosphorylation analysed by autoradiography.

[2] = test system: recombinant 14-3-3ζ; assay: 14-3-3 phosphorylation assay (PKA, in vitro); assay type: biochemical; conditions: S58A versus Wt recombinant 14-3-3
Procedure: as §1

[3] = test system: Jurkat cells; assay: Jurkat apoptosis assays (TMRE, caspase 3, Annexin V, viability by flow cytometry); assay type: cell-based
Procedure: (§2) Jurkat cells were routinely set up in apoptosis assays at 2×10^5/ml in RPMI with 0.5% FBS. After treatment, cells were stained either with 200 nM TMRE, 5 μl/ml NucView™ (Biotium), or Annexin V-FITC (Roche) for 15 mins prior to analysis by flow cytometry. Forward- and side-scatter properties were used to exclude debris and a ‘viable’ gate corresponding to the intact, PI negative cell population was used for fluorescence analysis. For A549, cells at 90% confluency were treated with RB compounds for 48 hrs in DMEM with 0.5% FBS. After treatment, cells were released with trypsin and then stained with NucView™ prior to analysis by flow cytometry.

[4] = test system: Jurkat cells over-expressing Bcl-2; assay: Apoptosis assays in Jurkat cells over-expressing Bcl-2; assay type: cell-based; conditions: 5 μM, 20 hours
Procedure: Jurkat cells were obtained from the ATCC and A549 cell lines from ECACC. Jurkat cells were routinely cultured in RPMI with 10% FBS and A549 cells in DMEM with 10% FBS at 37° C. with 5% CO2 Jurkat Bcl-2 cells were generated by lentiviral transduction using a third generation lentiviral construct, as described previously (10) containing a Bcl-2α-IRES-IL2Rα encoding cassette. Transduced cells were FACS sorted for expression of IL2Rα using anti-CD25-PE (BD Pharmingen #555433) to enrich for Bcl-2 over-expressing cells and protein expression was further confirmed by immunoblotting with anti-Bcl-2 antibody (#610538; BD Transduction Laboratories, data not shown).
as §2

[5] = reported value; cited from earlier work
[6] = test system: A549 xenograft; assay: A549 xenograft study; assay type: in vivo, BALB/c nude mice
Procedure: All experimental procedures involving animals were conducted in accordance with the NHMRC Australian Code for the Care and Use of Animals for Scientific Purposes and with approval by the institutional animal ethics committee. BALB/c nude mice (Nu/Nu, female, 5-6 weeks old) were purchased from the Animal Resources Centre (Perth, Wash.) and maintained under pathogen-free conditions. A549 cells (5×106) in 100 μl PBS were injected subcutaneously into the flanks of the mice and the resulting tumour were measured using digital callipers. The tumour volume was calculated using the following formula: Volume=(larger diameter)×(small diameter)2/2. Once the tumours had reached 100 mm3, mice were divided into groups of 9 and each group administered either RB-012 in saline, FTY720 in saline or saline alone by intraperitoneal injection daily. Initially RB-12 and FTY720 were administered at 2 mg/kg for two days and then the dose was increased to 5 mg/kg for two weeks after which RB-012 was increased to 10 mg/kg but FTY720 maintained at 5 mg/kg. During this dosing regime tumours were monitored twice a week. Differences between samples were analysed using 2 way Anova and statistical significance was accepted at P<0.05.
To assess the effect of RB-012 on human lung cancer growth in vivo, A549 cells were implanted subcutaneously on the flanks of Balb/C nude mice and tumours allowed to develop until they had reached a volume of 100 mm^3. RB-012 or saline was then administered daily to assess the effect on tumour growth. Initially, to reduce the cramping and encourage tolerance, 2 mg/kg RB-012 was administered for two days and then the dose was increased to 5 mg/kg daily for two weeks. Tumour volume was monitored twice a week and after two weeks of treatment mice administered RB-012 had tumours that were 20% smaller than mice receiving saline. […] The tumours on the RB-012 treated mice continued to grow more slowly and after the third week were 30% smaller than those of saline-treated mice (P<0.05). […] Therefore we were unable to increase FTY720 dosing to match RB-012.

[7] = test system: A549 cells; assay: A549 cell viability by MTS assay; assay type: cell-based, human; conditions: 48 hrs treatment
Procedure: A549 cells (2500/well) were plated in 96 well trays in DMEM with 0.5% FBS and cultured at 37° C. with 5% CO2 overnight. The following day RB compounds were added and cells incubated for a further 48 hours prior to removal of the medium and replacement with MTS reagent diluted 1:6 in Dulbecco's PBS. The cells were incubated at 37° C. for a further 4 hours and the conversion of MTS to the coloured formazan compound determined by measurement of absorbance at 490 nm.

[8] = test system: A549 cells; assay: A549 caspase-3 activation (NucView, flow cytometry); assay type: cell-based, human; conditions: 48 hrs treatment
Procedure: as §2

[9] = test system: incisional wounds of dorsal skin; assay: Incisional wound healing model; assay type: in vivo, mice
Procedure: A murine model of wound healing was utilised. In this model, 2×1 cm full thickness wounds were created in the dorsal skin. Wound healing was monitored using cohorts of mice humanely killed at 3, 5, 7 and 14 days post-wounding. Re-epithelialization was quantified histologically, by measuring the distance between epithelial margins sectioned in the transverse plane (Ansell D. M. et al. (2014) Wound Rep Reg 22: 281-287).
Incisional wounding was carried out as we have previously detailed (Lees et al. (2013) The Journal of investigative dermatology 133, 1330-1339). Briefly, two full-thickness 1 cm incisions were created on the dorsal skin of 12 week old female mice and allowed to heal. RB-11 (10 μg per mouse), 4-hydroxytamoxifen (50 μg per mouse) or vehicle was applied in a total volume of 20 μl to the edge of each wound using a micropipette and allowed to absorb into the skin. At the appropriate time point (2, 5, 7, 14 and 21 days) following incisional wounding, mice were humanely killed and tissues harvested. From each mouse, one wound was completed excised and fixed in 4% formalin overnight at 4° C. Following fixation, the wound was carefully bisected at the middle across the wound, processed and embedded in paraffin for histological and immunofluorescence analysis. Wound widths were measured on scanned images of H&E stained sections using NDPView slide scanning and image quantification software. The remaining wound was bisected across the wound, snap-frozen and processed for gene expression analysis.
14-3-3ζ-deficient and wild-type mice were subjected to the incisional wounding protocol followed by treatment with vehicle or RB-11 (5× daily topical treatments of 11.5 μg). […] Slides were optically scanned using a Nanozoomer slide scanner (Hamamatsu, Japan) and the wound gap measured using Imagescope software (Leica Biosystems, Germany). Values were plotted on a box and whisker plot and statistical significant assessed using the Mann-Whitney test together with Dunnett's post hoc test.

[10] = test system: WT dermal fibroblasts; assay: Collagen remodeling assay and cell morphology, wild-type dermal fibroblasts; assay type: cell-based, mice; conditions: 10 μM
Procedure: (§3) Rat-tail tendon collagen was prepared by extraction with 0.5 M acetic acid to a concentration of ˜2 mg/ml. 8×10^4 cells/ml WT or 14-3-3ζ KO dermal fibroblasts (labeled with either eGFP or mCherry) were embedded in this three-dimensional collagen 1 matrix and incubated in DMEM with 10% FCS and 10 mM L-Glutamine at 37° C. and 5% CO2. Detached polymerized matrix (2.5 ml) was allowed to contract for 11 days. During contraction, matrices were either left untreated or incubated with 10 μM RB-11. Media was changed on day 1 and on day 6. To calculate contraction rates and obtain information on cell morphology matrices were imaged every second day in phase contrast on a Leica DMIL LED inverted microscope with either a 4×/NA0.10 HI PLAN or a 10×/NA0.22 HI PLAN I air objective.
(§4) Measuring the mean diameter of three matrices and normalizing the diameter to day 1 determined contraction rates. Cell morphology was described by manually counting the number of cell protrusions/cell and the number of blebbing cells.
To determine the circularity of cells images were processed in ImageJ (NIH) according to following routine. Images were converted to 8 Bit images and cropped to an image size equivalent to […]. Grey values were thresholded to select cells. The ‘analyze particles’ function was used to determine circularity of cells. Circularity values range from 0 to 1 with ‘0’ representing rod-shaped cells and ‘1’ representing perfectly circular cells.
10^6 14-3-3ζ-deficient or wild-type dermal fibroblasts were embedded in 2 mg/mL % rat tail collagen plugs made with or without 10 μM RB-11. The plugs were maintained in DMEM containing 10% foetal bovine serum in a humidified incubator at 37° C. Collagen plugs were photographed on days 2, 6 and 12 and the area of the image occupied by the collage plug measured.

[11] = test system: 14-3-3ζ KO dermal fibroblasts; assay: Collagen remodeling assay and cell morphology, 14-3-3ζ KO dermal fibroblasts; assay type: cell-based, mice; conditions: 10 μM
Procedure: as §3, §4
To determine the circularity of cells images were processed in ImageJ (NIH) according to following routine. […]
10^6 14-3-3ζ-deficient or wild-type dermal fibroblasts were embedded in 2 mg/mL % rat tail collagen plugs made with or without 10 μM RB-11. […] Collagen plugs were photographed on days 2, 6 and 12 and the area of the image occupied by the collage plug measured.

## CCCCCCCCCCCCCCCC[N+](C)(C)C.[Br-] [CTAB, cetyltrimethylammonium bromide]
[1]; dose-response study
  concentration above which 14-3-3 phosphorylation plateaus: above 25 μM
  concentrations able to induce 14-3-3 phosphorylation: low micromolar concentrations
[1]; potentially non-specific protein denaturation
  concentration above which phosphorylation of 14-3-3 increased dramatically: above 75 μM
[1]; recombinant 14-3-3 and PKA catalytic subunit
  rendering 14-3-3 phosphorylatable (phosphorylation of 14-3-3 by PKA in vitro): dose-dependent increase in 14-3-3 phosphorylation
[2]
  phosphorylation site of 14-3-3ζ revealed: Ser58
[3]; 5 μM, 20 hours
  caspase-3 activation: induce caspase-3 activation
[4]
  cell death in Bcl-2 over-expressing cells: protected from CTAB-induced cell death
[5]
  critical micelle concentration: 0.92 mM

## CCCCCCCCc1ccc(CCC(N)(CO)CO)cc1 [FTY720]
[6]; 5 mg/kg daily i.p.
  tumour size versus saline: no reduction in tumour size; also recorded: did not elicit a reduction in tumour growth
[6]; 10 mg/kg
  adverse effects at 10 mg/kg: severe cramping with cardiac arrhythmia, with fatality in some cases
[6]; mouse, in vivo
  tolerability at 10 mg/kg: not tolerated

## CCCCCCCCc1ccc(CC[N+]2(C)CCCC2)cc1 [RB-011]
[3]
  ED50 for apoptosis induction, in words: low micromolar range
[3]; 5 μM, 24 hours
  Annexin V presentation: Annexin V presentation
  cell viability: loss of viability
[3]; 5 μM, within 5 hours
  apoptosis as determined by caspase-3 activation: readily able to activate apoptosis
[3]; Homo sapiens, Jurkat, 5 h, read-out: ED50 for apoptosis induction (initial activation of caspase-3)
  EC50: 2 µM
[7]
  cell viability / growth and survival (MTS), in words: inhibited
[7]; Homo sapiens, A549
  IC50: 7 µM
[8]
  caspase-3 activation: induce caspase activation
[9]; WT mice, topical 10 μg [25 nmol] once daily for 7 days
  rate of re-epithelialization: increased the rate of re-epithelialization
[9]; WT mice, topical 10 μg once daily for 7 days
  collagen production around wound margins (SHG): elevated collagen production
[9]; wild-type mice, 5× daily topical treatments of 11.5 μg, day 5 following wounding
  wound healing (wound width): hastened wound healing
[10]
  cell morphology by circularity analysis: rounded morphology
  cell morphology in 3D collagen organotypic matrices (live-cell imaging): contracted morphology
[10]; listed as RB-11
  collagen remodeling ability (contraction of collagen plug/matrix): unable to remodel the collagen plug; also recorded: significantly reduced collagen remodeling ability
[11]
  cell morphology by circularity analysis: no further change in the morphology
[11]; compared to wild type fibroblasts
  ability to remodel a collagen plug: reduced ability to remodel a collagen plug
